pEC50: −log10 of the molar value. Where a SMILES comes first, the peptide text is derived from it. [ ]: non-standard residue; d: D form. ξ: configuration not given here. Aoe(9ξ) = N[C@@H](CCCCCC(=O)C1CO1)C(=O)O; dPip = O=C(O)[C@H]1CCCCN1
What was measured:
Type in all cases: cell-based, human
[1] = test system: normal esophageal epithelium cell line EACN42; test: FDA library drug sensitivity testing (CellTiter-Glo, 72 h), normal control cells; set-up: key to DSS: modified drug sensitivity score (DSSmod) from dose-response curve fit; settings: EACN42 normal esophageal cells, 72 h; for pEC50: cell viability (ATP), max test concentration 10μM; for DSS: drug sensitivity score
In short: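 HPV E6-E7-immortalized normal human esophageal epithelial cells, 1000 per well, exposed 72 h at 37 °C to drugs in duplicate from 10μM top concentration across a 20,000-fold range. Viability by ATP bioluminescence; DMSO wells as negative control; curves scored with modified drug sensitivity score (DSSmod).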

EAC42 cells [2] = test: Clonogenic survival assay
Experimental: (§1) Clonogenic assays were performed as described previously. […] Colony formation was evaluated 14 days after seeding. All experiments were performed in triplicates and two biological replicates. Statistical analyses were performed in GraphPad prism.

EAC47 cells [3] = test: Clonogenic survival assay
Experimental: as §1

EAC42 cells [4] = test: FDA library drug sensitivity testing (CellTiter-Glo, 72 h)
In short: (§2)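 1000 cells/well exposed 72 h at 37 °C to drugs in duplicate, top concentration 10μM over a 20,000-fold range; DMSO wells as negative controls. Viability by ATP bioluminescence (CellTiter-Glo). Curves scored with the modified drug sensitivity score (DSSmod/sDSSmod).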

EAC47 cells [5] = test: as above
In short: as §2

Flo-1 cells [6] = test: Epigenetic compound library screen (CellTiter-Glo, 72 h); settings: Flo-1, 6μM; for cytotoxicity at 6 µM: Homo sapiens, read-out: % cell killing /control
Experimental: (§3) We tested a 163 compound epigenetic library that consists of inhibitors and activators of epigenetic modifying enzymes (writers, erasers and readers). All compounds were dissolved in 100% DMSO and tested in duplicate at a nominal test concentration of 6μM. Wells with assay buffer containing DMSO served as negative controls. 1000 exponentially growing cells were seeded per well in 384-well micro-titer plates and incubated in the presence of compounds in a humidified environment at 37°C and 5% CO2. After 72 hours of treatment, cell viability was assessed by measuring ATP levels via bioluminescence (CellTiter-Glo, Promega). […] Curve fitting and statistical analyses are performed in GraphPad prism.

OE33 cells [7] = test: as above; settings: OE33, 6μM; for cytotoxicity at 6 µM: Homo sapiens, read-out: % cell killing /control
Experimental: as §3

EAC47 cells [8] = test: as above; settings: EAC47, 6μM, 72 h; for cytotoxicity at 6 µM: Homo sapiens, read-out: % cell killing /control
Experimental: as §3

Flo-1 cells [9] = test: FDA library drug sensitivity testing (CellTiter-Glo, 72 h); settings: Flo-1; sDSSmod = DSSmod (patient cells) - DSSmod (normal cells)
Excerpt: OE33, OE19 and SKGT2 human esophageal adenocarcinoma cell lines were obtained from the European Collection of Cell Culture ([…]). Flo1, EAC42 and EAC47 cells were established in the Capobianco Laboratory. EAC42 and EAC47 human esophageal adenocarcinoma cell lines are derived from patients undergoing surgery at the Miller School of Medicine, University of Miami. The Capobianco laboratory obtained written informed consent from all patients and approval from the Institutional Research Ethics Committee.
Drug sensitivity testing (DST) was performed as described previously. […] Individual drugs were dissolved in 100% DMSO and tested in duplicates starting at a maximal test concentration of 10μM then over a 20,000-fold concentration range to generate dose response curves. Wells with assay buffer containing DMSO served as negative controls. 1000 exponentially growing cells were seeded per well in 384-well micro-titer plates and incubated in the presence of compounds in a humidified environment at 37°C and 5% CO2. After 72 hours of treatment, cell viability was assessed by measuring ATP levels via bioluminescence (CellTiter-Glo, Promega) according to manufactures recommendations. Interpretation of curve parameters was performed according to the modified drug sensitivity scoring (DSSmod) function developed by Swords et al. As a final step, the selective DSSmod (sDSSmod) for each drug in each patient screen is calculated according to the formula sDSSmod = DSSmod (patient cells)—DSSmod (normal cells). Given in this way, the sDSSmod incorporated information on each drug’s potency, efficacy, effect range and therapeutic index, making it possible to prioritize compounds over multiple parameters using a single numerical metric. In addition, this methodology allows us to rank compounds by cancer-selective efficacy for each individual patient. […] All calculations and scoring routines are implemented in MatLab and additional curve fitting and statistical analyses are performed in GraphPad prism.

OE19 cells = test: as above; settings: sDSSmod = DSSmod (patient cells) - DSSmod (normal cells)
In short: as §2

OE33 cells [10] = test: as above; settings: OE33; sDSSmod = DSSmod (patient cells) - DSSmod (normal cells)
In short: as §2

N.N.[Cl][Pt][Cl] [Cisplatin]
treatment response in words [1]: minimal treatment effects | pEC50 [1]: 8.00 | DSS [1]: 0 | clonogenic survival (EAC42 cells [2]; EAC42, 10μM cisplatin for 24h): 89.19% | clonogenic survival (EAC42 cells [2]; EAC42, 50μM cisplatin for 24h): 50.1% | clonogenic survival (EAC47 cells [3]; EAC47, 10μM cisplatin for 24h): 95.75% | clonogenic survival (EAC47 cells [3]; EAC47, 50μM cisplatin for 24h): 28.64% | reduction of cell survival in words (EAC42 cells [4]; EAC42, concentration of 10μM): did not result in a reduction of cell survival | reduction of cell survival in words (EAC47 cells [5]; EAC47, concentration of 10μM): did not result in a reduction of cell survival

Nc1ccccc1NC(=O)c1ccc(CNC(=O)OCc2cccnc2)cc1 [Entinostat (MS-275), Entinostat]
cytotoxicity at 6 µM (Flo-1 cells [6]): 43.3% | cytotoxicity at 6 µM (OE33 cells [7]): 76% | cytotoxicity at 6 µM (EAC47 cells [8]): 36.6%

Nc1ccn([C@@H]2O[C@H](CO)[C@@H](O)C2(F)F)c(=O)n1 [Gemcitabine]
pEC50 [1]: 6.49 | DSS [1]: 17.72 | clonogenic survival (EAC42 cells [2]; EAC42, 10nM gemcitabine for 2h, colonies after 14 days): 59.26% | clonogenic survival (EAC47 cells [3]; EAC47, 10nM gemcitabine for 2h, colonies after 14 days): 63.28% | sDSSmod (Flo-1 cells [9]): -5 | sDSSmod (OE19 cells): -16.819 | sDSSmod (EAC42 cells [4]; EAC42, sDSSmod = DSSmod (patient cells) - DSSmod (normal cells)): 14.66 | pEC50 (EAC42 cells [4]; Homo sapiens, EAC42, assay not stated explicitly, taken as DST screen, read-out: calculated EC50): 8.18 | sDSSmod (OE33 cells [10]): 9.443 | sDSSmod (EAC47 cells [5]; EAC47, sDSSmod = DSSmod (patient cells) - DSSmod (normal cells)): 8.407 | pEC50 (EAC47 cells [5]; Homo sapiens, EAC47, assay not stated explicitly, taken as DST screen, read-out: calculated EC50): 7.97

CCN(CC)Cc1ccc2cc(COC(=O)Nc3ccc(C(=O)NO)cc3)ccc2c1 [Givinostat (ITF2357), Givinostat]
cytotoxicity at 6 µM (Flo-1 cells [6]): 90.9% | cytotoxicity at 6 µM (OE33 cells [7]): 87.7% | cytotoxicity at 6 µM (EAC47 cells [8]): 96.8%

Cn1cc(CNCC2CCN(c3ncc(C(=O)NO)cn3)CC2)c2ccccc21 [JNJ-26481585]
% cell killing /control (Flo-1 cells [6]): 98.39% | % cell killing /control (OE33 cells [7]): 99.54% | % cell killing /control (EAC47 cells [8]): 113.73%

O=C(/C=C/c1ccc(CN(CCO)CCc2c[nH]c3ccccc23)cc1)NO [LAQ824]
cytotoxicity at 6 µM (Flo-1 cells [6]): 96.8% | cytotoxicity at 6 µM (OE33 cells [7]): 99% | cytotoxicity at 6 µM (EAC47 cells [8]): 108%

O=C(CCCCC[C@@H]1NC(=O)[C@H]2CCCCN2C(=O)[C@H](Cc2ccccc2)NC(=O)[C@H](Cc2ccccc2)NC1=O)C1CO1 (some centres unmarked) [Trapoxin A] (cyclo(FF[dPip][Aoe(9ξ)]))
cytotoxicity at 6 µM (Flo-1 cells [6]): 96.4% | cytotoxicity at 6 µM (OE33 cells [7]): 98.9% | cytotoxicity at 6 µM (EAC47 cells [8]): 102%

CC(/C=C/C(=O)NO)=C\[C@@H](C)C(=O)c1ccc(N(C)C)cc1 [Trichostatin A]
% cell killing /control (Flo-1 cells [6]): 96.32% | % cell killing /control (OE33 cells [7]): 98.02% | % cell killing /control (EAC47 cells [8]): 109.49%
